Molecular target: MTH1 (Homo sapiens, UniProt P36639)
Assay: MTH1 enzymatic assay (malachite green, coupled to pyrophosphatase)
Type: biochemical
Details: dGTP 100 μM, MTH1 6 nM; 96- or 384-well format; read-out: IC50

IC50	SMILES
< 200 nM	Cc1cccc(-c2cc(NCCNc3cc(-c4cccc(C)c4C)nc(N)n3)nc(N)n2)c1C [Example 561, 4-N-(2-{[2-amino-6-(2,3-dimethylphenyl)pyrimidin-4-yl]amino}ethyl)-6-(2,3-dimethylphenyl)pyrimidine-2,4-diamine]
< 200 nM	Cc1c(Cl)cccc1-c1cc(NC2CC2C)nc(N)n1 (centres unmarked) [Example 581, 6-(3-chloro-2-methylphenyl)-4-N-(2-methylcyclopropyl)pyrimidine-2,4-diamine]
2000 to 10000 nM	Cc1cccc(-c2cc(NC3CNC3)nc(N)n2)c1C [Example 589, 4-N-(azetidin-3-yl)-6-(2,3-dimethylphenyl)pyrimidine-2,4-diamine]
< 200 nM	Cc1c(Cl)cccc1-c1cc(NCCc2ccc(NC(=O)C3CC3)cc2)nc(N)n1 [Example 597, N-[4-(2-{[2-amino-6-(3-chloro-2-methylphenyl)pyrimidin-4-yl]amino}ethyl)phenyl]cyclopropanecarboxamide]
< 200 nM	Cc1cccc(-c2cc(NCCc3cccs3)nc(N)n2)c1C [Example 598, 6-(2,3-dimethylphenyl)-4-N-[2-(thiophen-2-yl)ethyl]pyrimidine-2,4-diamine]
< 200 nM	Cc1c(Cl)cccc1-c1cc(NCCc2ccc(Cl)c(Cl)c2)nc(N)n1 [Example 599, 6-(3-chloro-2-methylphenyl)-4-N-[2-(3,4-dichlorophenyl)ethyl]pyrimidine-2,4-diamine]
< 200 nM	Cc1c(Cl)cccc1-c1cc(NCCc2ccc(Cl)cc2Cl)nc(N)n1 [Example 600, 6-(3-chloro-2-methylphenyl)-4-N-[2-(2,4-dichlorophenyl)ethyl]pyrimidine-2,4-diamine]
< 200 nM	Cc1c(Cl)cccc1-c1cc(NCCc2ccc(C#N)cc2)nc(N)n1 [Example 625, 4-(2-{[2-amino-6-(3-chloro-2-methylphenyl)pyrimidin-4-yl]amino}ethyl)benzonitrile]
< 200 nM	CNc1cc(C#Cc2ccccc2)nc(N)n1 [Example 626, 4-N-methyl-6-(2-phenylethynyl)pyrimidine-2,4-diamine]
< 200 nM	Cc1c(Cl)cccc1-c1cc(NCCNc2ccc3c(=O)[nH]cnc3c2)nc(N)n1 [Example 632, 7-[2-[[2-amino-6-(3-chloro-2-methyl-phenyl)pyrimidin-4-yl]amino]ethylamino]-3H-quinazolin-4-one]
< 200 nM	Cc1c(Cl)cccc1-c1cc(NCCc2ccc(N)cc2)nc(N)n1 [Example 642, N4-[2-(4-aminophenyl)ethyl]-6-(3-chloro-2-methyl-phenyl)pyrimidine-2,4-diamine]
< 200 nM	Cc1c(Cl)cccc1-c1cc(NCCNS(=O)(=O)c2cccc(F)c2)nc(N)n1 [Example 660, N-[2-[[2-amino-6-(3-chloro-2-methyl-phenyl)pyrimidin-4-yl]amino]ethyl]-3-fluoro-benzenesulfonamide]
< 200 nM	Cc1c(Cl)cccc1-c1cc(NCCNC(=O)Nc2cccc(F)c2)nc(N)n1 [Example 663, 1-[2-[[2-amino-6-(3-chloro-2-methyl-phenyl)pyrimidin-4-yl]amino]ethyl]-3-(3-fluorophenyl)urea]
2000 to 10000 nM	Cc1c(Cl)cccc1-c1cc(NC2CN(c3ccc(S(N)(=O)=O)cc3)C2)nc(N)n1 [Example 667]
< 200 nM	Cc1c(Cl)cccc1-c1cc(NCCCNC(=O)OC(C)(C)C)nc(N)n1 [Example 668, tert-butyl N-[3-[[2-amino-6-(3-chloro-2-methyl-phenyl)pyrimidin-4-yl]amino]propyl]carbamate]
< 200 nM	Cc1c(Cl)cccc1-c1cc(NCCCCc2ccccc2)nc(N)n1 [Example 680, 6-(3-chloro-2-methyl-phenyl)-N4-(4-phenylbutyl)pyrimidine-2,4-diamine]
< 200 nM	Cc1c(Cl)cccc1-c1cc(NCCC2=CCCCC2)nc(N)n1 [Example 681, 6-(3-chloro-2-methyl-phenyl)-N4-[2-(cyclohexen-1-yl)ethyl]pyrimidine-2,4-diamine]
< 200 nM	C=CCCNc1cc(-c2cccc(Cl)c2C)nc(N)n1 [Example 682, N4-but-3-enyl-6-(3-chloro-2-methyl-phenyl)pyrimidine-2,4-diamine]
< 200 nM	Cc1c(Cl)cccc1-c1cc(NCCNc2cccc3c(S(=O)(=O)O)cccc23)nc(N)n1 [Example 683, 5-[2-[[2-amino-6-(3-chloro-2-methyl-phenyl)pyrimidin-4-yl]amino]ethylamino]naphthalene-1-sulfonic acid]
< 200 nM	Cc1c(Cl)cccc1-c1cc(NCCOCC2CC2)nc(N)n1 [Example 684, 6-(3-chloro-2-methyl-phenyl)-N4-[2-(cyclopropylmethoxy)ethyl]pyrimidine-2,4-diamine]
< 200 nM	Cc1c(Cl)cccc1-c1cc(NCC=C(F)F)nc(N)n1 [Example 686, 6-(3-chloro-2-methyl-phenyl)-N4-(3,3-difluoroallyl)pyrimidine-2,4-diamine]
< 200 nM	Cc1c(Cl)cccc1-c1cc(NCCC(F)(F)Br)nc(N)n1 [Example 687, N4-(3-bromo-3,3-difluoro-propyl)-6-(3-chloro-2-methyl-phenyl)pyrimidine-2,4-diamine]

IC50	SMILES
< 200 nM	Cc1c(Cl)cccc1-c1cc(NCCSCCc2ccccc2)nc(N)n1 [Example 690, 6-(3-chloro-2-methylphenyl)-N4-{2-[(2-phenylethyl)sulfanyl]ethyl}pyrimidine-2,4-diamine]
2000 to 10000 nM	Cc1c(Cl)cccc1-c1cc(NCC[S+]([O-])CCc2ccccc2)nc(N)n1 (centres unmarked) [Example 692, 6-(3-chloro-2-methyl-phenyl)-N4-[2-(2-phenylethylsulfinyl)ethyl]pyrimidine-2,4-diamine]
< 200 nM	Cc1cc(CSCCNc2cc(-c3cccc(Cl)c3C)nc(N)n2)no1 [Example 700, 6-(3-chloro-2-methyl-phenyl)-N4-[2-[(5-methylisoxazol-3-yl)methylsulfanyl]ethyl]pyrimidine-2,4-diamine]
< 200 nM	Cc1noc(C)c1CCNc1cc(-c2cccc(Cl)c2C)nc(N)n1 [Example 701, 6-(3-chloro-2-methyl-phenyl)-N4-[2-(3,5-dimethylisoxazol-4-yl)ethyl]pyrimidine-2,4-diamine]
< 200 nM	CCCNc1cc(-c2cccc(Cl)c2C)nc(N)n1 [Example 702, 6-(3-chloro-2-methyl-phenyl)-N4-propyl-pyrimidine-2,4-diamine]
< 200 nM	CCCCNc1cc(-c2cccc(Cl)c2C)nc(N)n1 [Example 703, N4-butyl-6-(3-chloro-2-methyl-phenyl)pyrimidine-2,4-diamine]
< 200 nM	COCCNc1cc(-c2cccc(Cl)c2C)nc(N)n1 [Example 704, 6-(3-chloro-2-methyl-phenyl)-N4-(2-methoxyethyl)pyrimidine-2,4-diamine]
< 200 nM	CCOCCCNc1cc(-c2cccc(Cl)c2C)nc(N)n1 [Example 705, 6-(3-chloro-2-methyl-phenyl)-N4-(3-ethoxypropyl)pyrimidine-2,4-diamine]
< 200 nM	Cc1c(Cl)cccc1-c1cc(NCC2CCOCC2)nc(N)n1 [Example 706, 6-(3-chloro-2-methyl-phenyl)-N4-(tetrahydropyran-4-ylmethyl)pyrimidine-2,4-diamine]
< 200 nM	Cc1c(Cl)cccc1-c1cc(NCC2CCCO2)nc(N)n1 (centres unmarked) [Example 707, 6-(3-chloro-2-methyl-phenyl)-N4-(tetrahydrofuran-2-ylmethyl)pyrimidine-2,4-diamine]
< 200 nM	CC(C)=CCC/C(C)=C/CNc1cc(-c2cccc(Cl)c2C)nc(N)n1 [Example 708, 6-(3-chloro-2-methyl-phenyl)-N4-[(2E)-3,7-dimethylocta-2,6-dienyl]pyrimidine-2,4-diamine]
< 200 nM	Cc1c(Cl)cccc1-c1cc(NCC(C)C)nc(N)n1 [Example 709, 6-(3-chloro-2-methyl-phenyl)-N4-isobutyl-pyrimidine-2,4-diamine]
< 200 nM	Cc1c(Cl)cccc1-c1cc(NCCc2ccccc2)nc(N)n1 [Example 713, 6-(3-chloro-2-methyl-phenyl)-N4-(2-phenylethyl)pyrimidine-2,4-diamine]
< 200 nM	Cc1c(Cl)cccc1-c1cc(NCCc2ccncc2)nc(N)n1 [Example 714, 6-(3-chloro-2-methyl-phenyl)-N4-[2-(4-pyridyl)ethyl]pyrimidine-2,4-diamine]
< 200 nM	Cc1c(Cl)cccc1-c1cc(NCCc2ccccn2)nc(N)n1 [Example 715, 6-(3-chloro-2-methyl-phenyl)-N4-[2-(2-pyridyl)ethyl]pyrimidine-2,4-diamine]
< 200 nM	Cc1c(Cl)cccc1-c1cc(NC/C(=C\F)CCc2ccc(F)cc2)nc(N)n1 [Example 721, 6-(3-chloro-2-methyl-phenyl)-N4-[(2Z)-2-(fluoromethylene)-4-(4-fluorophenyl)butyl]pyrimidine-2,4-diamine]
2000 to 10000 nM	Cc1cc(C[S+]([O-])CCNc2cc(-c3cccc(Cl)c3C)nc(N)n2)no1 (centres unmarked) [Example 725, 6-(3-chloro-2-methyl-phenyl)-N4-[2-[(5-methylisoxazol-3-yl)methylsulfinyl]ethyl]pyrimidine-2,4-diamine]
< 200 nM	Cc1c(Cl)cccc1-c1cc(NCCc2ccc(O)c(O)c2)nc(N)n1 [Example 727, 4-[2-[[2-amino-6-(3-chloro-2-methyl-phenyl)pyrimidin-4-yl]amino]ethyl]benzene-1,2-diol]
< 200 nM	Cc1c(Cl)cccc1-c1cc(NCCc2cc(O)c(O)c(O)c2)nc(N)n1 [Example 728, 5-[2-[[2-amino-6-(3-chloro-2-methyl-phenyl)pyrimidin-4-yl]amino]ethyl]benzene-1,2,3-triol]
< 200 nM	C=C(C)CNc1cc(-c2cccc(Cl)c2C)nc(N)n1 [Example 729, 6-(3-chloro-2-methyl-phenyl)-N4-(2-methylallyl)pyrimidine-2,4-diamine]
< 200 nM	COC(=O)C1CCC(CNc2cc(-c3cccc(Cl)c3C)nc(N)n2)CC1 (centres unmarked) [Example 731, methyl 4-[[[2-amino-6-(3-chloro-2-methyl-phenyl)pyrimidin-4-yl]amino]methyl]cyclohexanecarboxylate]
< 200 nM	Cc1c(Cl)cccc1-c1cc(NCCc2cccnc2)nc(N)n1 [Example 733, 6-(3-chloro-2-methyl-phenyl)-N4-[2-(3-pyridyl)ethyl]pyrimidine-2,4-diamine]

From patent publication US10632125B2, “MTH1 inhibitors for treatment of inflammatory and autoimmune conditions” (THOMAS HELLEDAYS STIFTELSE FÖR MEDICINSK FORSKNING, priority 2014, dated 2020)
